The record followed here is doi:10.1101/2025.03.14.643351, “Dissection of amino acid acquisition pathways in Borrelia burgdorferi uncovers unique physiological responses” (bioRxiv, 2025).

For this assay, the target named is T1, BB0401 (GltPBb) (Borreliella burgdorferi, UniProt O51362).
T1 construct: gene BB_0401; full-length bb0401 ORF, IPTG-inducible from shuttle vector pibb0401 in chromosomal bb0401-deleted B. burgdorferi (bb0401^cond); intact cells; no tag mentioned
Kind of assay: heavy-isotope uptake into conditional mutant with and without IPTG, LC-MS/MS. The class given is cell-based. As to conditions: BSK-II medium with unlabelled amino acids, 37 C, 2 h or 6 h uptake after 48 h or 7 d without inducer.

T1 sequence (O51362 entry or part of it): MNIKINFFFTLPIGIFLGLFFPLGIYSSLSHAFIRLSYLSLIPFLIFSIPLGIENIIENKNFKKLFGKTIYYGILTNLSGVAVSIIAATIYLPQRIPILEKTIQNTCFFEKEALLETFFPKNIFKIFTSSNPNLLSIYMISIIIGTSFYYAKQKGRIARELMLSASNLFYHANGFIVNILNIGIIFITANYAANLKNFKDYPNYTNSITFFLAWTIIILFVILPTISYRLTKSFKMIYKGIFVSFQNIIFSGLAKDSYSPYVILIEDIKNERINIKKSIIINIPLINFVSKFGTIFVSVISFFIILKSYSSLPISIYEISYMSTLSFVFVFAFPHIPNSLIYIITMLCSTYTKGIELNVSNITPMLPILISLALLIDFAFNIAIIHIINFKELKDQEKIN

As to `N[C@@H](CC(=O)O)C(=O)O` [heavy aspartate (^13C4,^15N1)], the “heavy-isotope uptake into conditional mutant with and without IPTG, LC-MS/MS” value (labelled compound (13C4,15N1), 30 mg/L) is “more dramatic reduction in the amount of heavy labeled aspartate and glutamate imported”.
Turning to `N[C@@H](CCC(=O)O)C(=O)O` [heavy glutamate (^13C5,^15N1)], the “heavy-isotope uptake into conditional mutant with and without IPTG, LC-MS/MS” value (labelled compound (13C5,15N1), 86.2 mg/L) was “more dramatic reduction in the amount of heavy labeled aspartate and glutamate imported”.
